Experimental data reported in patent publication US20120010196A1, “METHODS OF TREATING NEURODEGENERATIVE DISORDERS AND DISEASES” (priority 2010, published 2012).

Experiments:
Type in all cases: cell-based
[1] = system: cortical neurons cultured from wild-type mice; experiment: Immunoblotting analysis of various proteins in cultured cortical neurons (U18666A-induced changes); settings: pre-treatment with Y-27632
Procedure: (§1) Neuronal cultures. Cortical and hippocampal neurons were prepared from npc1+/+ and npc1−/− embryos at embryonic day 18 (E18); time-pregnant wild-type BALB/c or npc1+/− mice were obtained either from Charles River Laboratories (San Diego, Calif.) or from our breeding colony respectively. Neurons were cultured in NeuroBasal (GIBCO, Carlsbad, Calif.) with 10% bovine serum albumin (BSA), 2% B27, and 1% glutamine for three to four days before being used.
(§2) Treatment. For primary cultured neurons, chemicals (U18666A and inhibitors of various enzymes) were first dissolved in 10% DMSO before being diluted in cultured medium; final DMSO concentration was lower than 0.01%. For in vivo treatment, hydroxyfasudil monohydrochloride (Sigma) was dissolved in double-distilled H2O and injected subcutaneously at 10 mg/kg, twice a day from postnatal day 7 to day 28.
Immunoprecipitation and immunoblotting procedures. For immunoprecipitation, cultured cortical neurons were lysed in lysis buffer [0.05 M Tris base, 0.9% NaCl, pH 7.6, and 0.5% Triton X-100 plus Protease Inhibitors Cocktail (1:100; EMD Biosciences) and phosphatase inhibitor cocktails (1:500; Sigma)]. Lysates were centrifuged at 16,000×g for 30 min at 4° C. Supernatant were then cleared with a mixture of protein A/Gagarose beads (each 50%) for 1 h at 4 uC, and after a brief spin, pellets were discarded. A small portion of the supernatants was used as input. The reminder of the supernatant was immunoprecipitated overnight with control IgG or Tau1 antibodies. Immunoprecipitates were captured by incubation with protein A/G-agarose beads for 3 h at 4° C. After several washes, the beads were resuspended in 2×SDS sample buffer [4% sodium dodecyl sulfate (SDS), 100 mM Tris-HCl (pH 6.8), 10% b-mercaptoethanol, 20% glycerol and 0.2% bromophenol blue] and boiled for 10 min. The resulting proteins were separated by SDS-PAGE, and transferred to polyvinylidene difluoride membranes for immunoblotting using previously described protocols.
Because the p-p53Δ and p-p53 bands were very close in immunoblots and the former was the predominant band, p-p53Δ levels were used as an index of p-p53 degradation. Immunoprecipitation was used to determine whether p-p53 truncation affected its association with the microtubule-associated protein tau, a protein that is abundantly and exclusively expressed in axons. p53 labeled by either anti-p-p53 or anti-p53 antibodies was immunoprecipitated by Tau1 antibodies (FIG. 5B).
Increased levels of p-p53Δ and p-Mdm2 were quantified using the ImageJ program (National Institutes of Health, Bethesda, Md.). The quantified levels are contained in Table 1 below.

[2] = system: hippocampal neurons cultured from wild-type mice; experiment: Quantification of growth cone collapse in cultured neurons from wild-type mice (U18666A-induced); settings: Y-27632 10 μM pre-incubation for 2 h, then 5 μM U18666A for 2 min, DIV4; n=100 growth cones
Procedure: as §1, §2
(§3) Immunofluorescent staining. Hippocampal neurons were fixed with 4% paraformaldehyde in phosphate buffer (PB; pH 7.4) for 15 min. After washing with 1× phosphate buffer saline (PBS), cells were permeabilized with 0.05% Triton X-100 in 1×PBS for 15 min, and incubated with blocking buffer (3% BSA, 0.02% Triton X-100 in 1×PBS) for 15 min before being probed with primary antibodies. The following primary antibodies were used: anti-E6AP (1:1000), anti-phospho-p53 (1:250), anti-phospho-4EBP1 (1:1000), antiphospho-Mdm2 antibody (1:250), anti-phospho-p38 antibody (1:250), anti-RhoA antibody (1:1500). All primary antibodies were diluted in blocking buffer and incubated at 4° C. for 18 h. After six washes (6×10 min) with 1×PBS at room temperature, cells were incubated with secondary antibodies, Alexa488-anti-rabbit (1:500) or Alexa594-anti-mouse (1:500); both antibodies were diluted in blocking buffer and incubated at room temperature for one h. Cells were then washed with 1×PBS (6×10 min) and sealed with mounting medium (Vectashield; Vector Laboratories, Inc., Burlingame, Calif.) containing 49,69-diamidino-2-phenylindole (DAPI) to stain nuclei. Immunofluorescent signal was detected with a Nikon confocal microscope (Nikon TE 2000U with DEclipse C1 system; Melville, N.Y.).
(§4) Quantification of growth cone morphology and immunoreactivity. Confocal images were taken using the 60× oil-immersion objective. About 20-30 images were randomly selected from each culture dish (20 mm in diameter); at least four to six dishes from three to six independent culture preparations/experiments were used for each experimental group. Within an experiment, cultures used for different experimental groups and designed for comparison were stained simultaneously and imaged with the same acquisition parameters. Quantification was done blindly by multiple researchers. Growth cones with less than 1 filopodium were considered collapsed; 100 growth cones were-quantified for each experimental group. Image J software was used to quantify immunoreactivity intensity of p-p53 and RhoA in axons and growth cones; the “total integrated density” was used instead of “average intensity”. Briefly, individual growth cones were outlined manually and the total integrated density was measured using Image J software. For quantification of immunoreactivity in axons, a 50 μm fragment of axons from the neck of growth cones towards the cell body was selected and integrated density measured.

[3] = system: hippocampal neurons cultured from npc1−/− mice; experiment: Growth cone collapse in hippocampal neurons cultured from npc1−/− mice; settings: 10 μM Y-27632 for 18 h at DIV3; vehicle 80±2%; n=100 growth cones
Procedure: as §1
(§5) Treatment. For primary cultured neurons, chemicals (U18666A and inhibitors of various enzymes) were first dissolved in 10% DMSO before being diluted in cultured medium; final DMSO concentration was lower than 0.01%. […]
(§6) Immunofluorescent staining. […] Immunofluorescent signal was detected with a Nikon confocal microscope (Nikon TE 2000U with DEclipse C1 system; Melville, N.Y.).
(§7) Quantification of growth cone morphology and immunoreactivity. […] Quantification was done blindly by multiple researchers. Growth cones with less than 1 filopodium were considered collapsed; 100 growth cones were-quantified for each experimental group. Image J software was used to quantify immunoreactivity intensity of p-p53 and RhoA in axons and growth cones; the “total integrated density” was used instead of “average intensity”. Briefly, individual growth cones were outlined manually and the total integrated density was measured using Image J software. […]

[4] = system: axons and growth cones of hippocampal neurons from wild-type mice; experiment: Immunofluorescence quantification of protein levels in axons and growth cones of wild-type hippocampal neurons
Procedure: as §1, §2, §3, §4

[5] = system: hippocampal neurons cultured from npc1−/− mice; experiment: p-p53 immunoreactivity in axons and growth cones of npc1−/− hippocampal neurons; settings: 10 μM Y-27632 for 18 h at DIV3
Procedure: as §1, §5, §6, §7

C[C@@H](N)[C@H]1CC[C@H](C(=O)Nc2ccncc2)CC1.Cl.Cl [Y-27632, trans-4-[(1R)-1-Aminoethyl]-N-4-pyridinylcyclohexanecarboxamide dihydrochloride]
effect on U18666A-induced increase in levels of phosphorylated LIM kinase (immunoblot) [1]: significantly reduced
effect on U18666A-induced increase in p38 and Mdm2 phosphorylation, protein ubiquitination and RhoA levels (immunoblot) [1]: did not block
effect on U18666A-induced p-p53 truncation (immunoblot) [1]: significantly reduced
growth cone collapse [2]: 41±1%
growth cone collapse [3]: 48±1%
effect on U18666A-induced decrease in p-p53 immunoreactivity in axons and growth cones ([4]; Y-27632 10 μM 2 h pretreatment, 5 μM U18666A 2 min): reversed
effect on U18666A-induced reduction of "mutant" p53 in axons and growth cones ([4]; pre-incubation with 10 μM Y27632): blocked
p-p53 immunoreactivity in axons and growth cones [5]: increased
